Legend:
K. pneumoniae [1] = assay: Polymyxin test: colorimetric detection of growth (glucose metabolization, phenol red) in presence of colistin sulphate; type: cell-based, Klebsiella pneumoniae; set-up: key: +, yellow; -, orange; conditions: colistin sulphate 3.75 mg/L final, visual colour change, up to 4 h at 37°C
Description: (§1) Each inoculum was prepared by mixing 1 öse (10 µl) of a fresh culture of the tested bacteria in 5 ml of sterile NaCl 0.85% (at a density of 3 Mac Farland, i.e. about 10^9 CFU/ml).
(§2) 250 ml of reactive medium was prepared by mixing the compounds hereafter: • a broth powder of a non selective growth medium for bacteria, the Cation-Adjusted Mueller-Hinton broth (MHB-CA) : 6.25 g • a colour indicator, the phenol red : 0.0125 g • sterile distilled water 225 ml • sterile D (+)-glucose (10 %) anhydrous (sterilization by filtration) : 25 ml
(§3) The pH of the final reactive medium was adjusted to 6.6 and 6.7 with HCl 1M.
(§4) Colistin or polymyxin B was added or not at the concentration of 5 mg/L in the reactive medium. Standard colistin sulphate and polymyxin B were from Sigma Aldrich (Saint-Louis, France). Those antibiotic molecule powders were kept at 4°C before their use, whereas polymyxin dilutions were kept at -20°C.
(§5) For each strain, two wells of a plastic sterile plate with 96 shaped wells were inoculated in parallel with and without polymyxin (colistin sulphate or polymyxin B) in order to compare their colour change.
(§6) Plastic sterile plates were from Sarstedt (Nümbrecht, Germany). The tray may be prepared as follows : • 1. 150 µl of reactive medium colistin free (obtained in 1.) in the first line • 2. 150 µl of reactive medium with 5 mg/l of colistin sulphate in the second line (final concentration = 3.75 mg/l) • 3. 50 µl of NaCl alone in the first column (one well colistin-free and one well with colistin sulphate) (medium control) • 4. 50 µl of the bacterial suspension (obtained in 2.) for the control strains and for every strain in the other column (one well colistin-free and one well with colistin)
(§7) After mixing of the bacterial suspension to the reactive medium by pipetting up and down, the final concentration of bacteria was 2.5.10^8 CFU/ml in each well and the final selective concentration of colistin or polymyxin B in the well with polymyxin was 3.75 mg/L.
(§8) The results of the tests were recorded at 10 min (checking for no spontaneous colour change in the well) and then every hour for a maximum of 4 hours by visual inspection. No colour change of the well with colistin sulphate or polymyxin B indicated susceptibility to colistin sulphate or polymyxin B and negativity of those tests. On the contrary, a colour change (orange to yellow) indicates the positivity of the test meaning growth capability (related to glucose metabolism) in presence of colistin sulphate or polymyxin B, i.e. resistance to colistin sulphate or polymyxin B.
(§9) All experiments were repeated in triplicate.

M. morganii = assay: as above; type: cell-based; set-up: key: +, yellow; -, orange; conditions: strain Mmor; colistin sulphate 3.75 mg/L final; visual colour change, up to 4 h at 37°C
Description: as §1, §2, §3, §4, §5, §6, §7, §8, §9

C. freundii = assay: as above; type: cell-based; set-up: key: +, yellow; -, orange; conditions: colistin sulphate 3.75 mg/L final, visual colour change, up to 4 h at 37°C
Description: as §1, §2, §3, §4, §5, §6, §7, §8, §9

K. oxytoca = assay: as above; type: cell-based; set-up: key: +, yellow; -, orange; conditions: strain C24; colistin sulphate 3.75 mg/L final; visual colour change, up to 4 h at 37°C
Description: as §1, §2, §3, §4, §5, §6, §7, §8, §9

E. cloacae = assay: as above; type: cell-based; set-up: key: +, yellow; -, orange; conditions: colistin sulphate 3.75 mg/L final, visual colour change, up to 4 h at 37°C
Description: as §1, §2, §3, §4, §5, §6, §7, §8, §9

P. stuartii = assay: as above; type: cell-based; set-up: key: +, yellow; -, orange; conditions: strain Pstu; colistin sulphate 3.75 mg/L final; visual colour change, up to 4 h at 37°C
Description: as §1, §2, §3, §4, §5, §6, §7, §8, §9

E. aerogenes = assay: as above; type: cell-based; set-up: key: +, yellow; -, orange; conditions: strain 6 FR; colistin sulphate 3.75 mg/L final; visual colour change, up to 4 h at 37°C
Description: as §1, §2, §3, §4, §5, §6, §7, §8, §9

H. alvei = assay: as above; type: cell-based; set-up: key: +, yellow; -, orange; conditions: strain ER; colistin sulphate 3.75 mg/L final; visual colour change, up to 4 h at 37°C
Description: as §1, §2, §3, §4, §5, §6, §7, §8, §9

K. pneumoniae [2] = assay: MIC determination, broth microdilution in Cation-Adjusted Mueller-Hinton broth (CLSI); type: cell-based, Klebsiella pneumoniae; conditions: for Colistin resistance: EUCAST breakpoints
Description: Determination of MIC values were performed using the reference technique (broth microdilution in Cation-Adjusted Mueller-Hinton broth) according to the CLSI guidelines. Polymyxin B and colistin (Sigma-Aldrich, Saint-Louis) were tested over a range dilution from 0.12 to 128 µg/ml and 5.10^5 CFU/ml of bacteria in each well was used. Following the EUCAST breakpoints (http://www.eucast.org/), strains with a colistin MICs of ≤ 2 µg/ml were categorized as susceptible, although those with MICs of > 2 µg/ml were resistant.
as §9

P. mirabilis = assay: Polymyxin test: colorimetric detection of growth (glucose metabolization, phenol red) in presence of colistin sulphate; type: cell-based, Proteus mirabilis; set-up: key: +, yellow; -, orange; conditions: strain Pmir; colistin sulphate 3.75 mg/L final; visual colour change, up to 4 h at 37°C
Description: as §1, §2, §3, §4, §5
Plastic sterile plates were from Sarstedt (Nümbrecht, Germany). The tray may be prepared as follows : • 1. […]
The results of the tests were recorded at 10 min (checking for no spontaneous colour change in the well) and then every hour for a maximum of 4 hours by visual inspection. […]

colistin sulphate
Results of the method of the invention (K. pneumoniae [1]; strain 1 FR): -
Results of the method of the invention (K. pneumoniae [1]; strain 2 FR): -
Results of the method of the invention (K. pneumoniae [1]; strain 4 FR): -
Results of the method of the invention (K. pneumoniae [1]; strain 9 FR): -
Results of the method of the invention (K. pneumoniae [1]; strain 11 FR): +
Results of the method of the invention (K. pneumoniae [1]; strain 75b): +
Results of the method of the invention (K. pneumoniae [1]; strain AF1b): +
Results of the method of the invention (K. pneumoniae [1]; strain C23): +
Results of the method of the invention (K. pneumoniae [1]; strain C25): +
Results of the method of the invention (K. pneumoniae [1]; strain C26): +
Results of the method of the invention (K. pneumoniae [1]; strain C27): +
Results of the method of the invention (K. pneumoniae [1]; strain C112): -
Results of the method of the invention (K. pneumoniae [1]; strain C115): -
Results of the method of the invention (K. pneumoniae [1]; strain C130): -
Results of the method of the invention (K. pneumoniae [1]; strain C132): -
Results of the method of the invention (K. pneumoniae [1]; strain T1b): +
Results of the method of the invention (M. morganii): +
Results of the method of the invention (C. freundii; strain 8 FR): -
Results of the method of the invention (C. freundii; strain C136): -
Results of the method of the invention (K. oxytoca): +
Results of the method of the invention (E. cloacae; strain 7 FR): -
Results of the method of the invention (E. cloacae; strain C28): +
Results of the method of the invention (E. cloacae; strain C129): -
Results of the method of the invention (E. cloacae; strain C144): -
Results of the method of the invention (E. cloacae; strain HM): +
Results of the method of the invention (P. stuartii): +
Results of the method of the invention (E. aerogenes): -
Results of the method of the invention (H. alvei): +
Colistin MIC (K. pneumoniae [2]; strain 1 FR): 0.12 µg/mL
Colistin resistance (K. pneumoniae [2]; strain 1 FR): - (strains with a colistin MICs of ≤ 2 µg/ml were categorized as susceptible)
Colistin MIC (K. pneumoniae [2]; strain 2 FR): 0.12 µg/mL
Colistin resistance (K. pneumoniae [2]; strain 2 FR): - (strains with a colistin MICs of ≤ 2 µg/ml were categorized as susceptible)
Colistin MIC (K. pneumoniae [2]; strain 4 FR): 0.25 µg/mL
Colistin resistance (K. pneumoniae [2]; strain 4 FR): - (strains with a colistin MICs of ≤ 2 µg/ml were categorized as susceptible)
Colistin MIC (K. pneumoniae [2]; strain 9 FR): 0.5 µg/mL
Colistin resistance (K. pneumoniae [2]; strain 9 FR): - (strains with a colistin MICs of ≤ 2 µg/ml were categorized as susceptible)
Colistin resistance (K. pneumoniae [2]; strain 11 FR): + (those with MICs of > 2 µg/ml were resistant)
Colistin MIC (K. pneumoniae [2]; strain 11 FR, resistance mechanism Unknown): 32 µg/mL
Colistin resistance (K. pneumoniae [2]; strain 75b): + (those with MICs of > 2 µg/ml were resistant)
Colistin MIC (K. pneumoniae [2]; strain 75b, PhoP D191Y): 128 µg/mL
Colistin resistance (K. pneumoniae [2]; strain AF1b): + (those with MICs of > 2 µg/ml were resistant)
Colistin MIC (K. pneumoniae [2]; strain AF1b, PmrB T157P): 16 µg/mL
Colistin resistance (K. pneumoniae [2]; strain C23): + (those with MICs of > 2 µg/ml were resistant)
Colistin MIC (K. pneumoniae [2]; strain C23, ΔmgrB): 128 µg/mL
Colistin resistance (K. pneumoniae [2]; strain C25): + (those with MICs of > 2 µg/ml were resistant)
Colistin MIC (K. pneumoniae [2]; strain C25, PmrA G53C): 64 µg/mL
Colistin resistance (K. pneumoniae [2]; strain C26): + (those with MICs of > 2 µg/ml were resistant)
Colistin MIC (K. pneumoniae [2]; strain C26, mgrB gene truncated with IS): 128 µg/mL
Colistin resistance (K. pneumoniae [2]; strain C27): + (those with MICs of > 2 µg/ml were resistant)
Colistin MIC (K. pneumoniae [2]; strain C27, mgrB Δnt23/33 (frameshift)): >128 µg/mL
Colistin MIC (K. pneumoniae [2]; strain C112): 0.12 µg/mL
Colistin resistance (K. pneumoniae [2]; strain C112): - (strains with a colistin MICs of ≤ 2 µg/ml were categorized as susceptible)
Colistin MIC (K. pneumoniae [2]; strain C115): 0.12 µg/mL
Colistin resistance (K. pneumoniae [2]; strain C115): - (strains with a colistin MICs of ≤ 2 µg/ml were categorized as susceptible)
Colistin MIC (K. pneumoniae [2]; strain C130): 0.12 µg/mL
Colistin resistance (K. pneumoniae [2]; strain C130): - (strains with a colistin MICs of ≤ 2 µg/ml were categorized as susceptible)
Colistin MIC (K. pneumoniae [2]; strain C132): 0.12 µg/mL
Colistin resistance (K. pneumoniae [2]; strain C132): - (strains with a colistin MICs of ≤ 2 µg/ml were categorized as susceptible)
Colistin resistance (K. pneumoniae [2]; strain T1b): + (those with MICs of > 2 µg/ml were resistant)
Colistin MIC (K. pneumoniae [2]; strain T1b, mgrB gene truncated with IS5-like): 128 µg/mL
Results of the method of the invention (P. mirabilis): +

Reference: patent publication EP3070175A1, “TEST FOR DETERMINING SUSCEPTIBILITY OR RESISTANCE TO POLYMYXINS IN ENTEROBACTERIACEAE” (Université de Fribourg, priority 2015, dated 2016)
